pEC50: −log10 of the molar value.
Legend:
[1] = target: T1, human β3 adrenergic receptor (Homo sapiens, UniProt P13945); experiment: cAMP accumulation (SPA) in CHO cells transfected with human β3 adrenergic receptor; type: cell-based; conditions: for pEC50: CHO cells expressing human β3-AR, cAMP, 30 min incubation, 10^−9 M to 10^−5 M, read-out: beta-3 EC50; for beta-3 (IA) maximal response relative to isoproterenol: IA = % activity compound / % activity isoproterenol at 10^−5 M, CHO human β3 cells
T1 construct: Full length β3 AR clones (402 amino acids) containing the last 6 amino acids of hβ3— AR are prepared; expressed in transfected cells; host or cells: CHO cells
How it was run: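 CHO cells expressing human β3-AR (70–110 fmol/mg protein) treated with compound at 10^−9 to 10^−5 M in DMEM with 250 μM IBMX and 1 mM ascorbic acid, 30 min, 37 °C. cAMP measured by SPA; EC50 derived, and intrinsic activity expressed relative to the maximal response of 10^−5 M isoproterenol.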

[2] = target: T2, human β2-adrenergic receptor (Homo sapiens, UniProt P07550); experiment: cAMP accumulation (SPA) in CHO cells transfected with human β2 adrenergic receptor; type: cell-based; conditions: for pEC50: CHO cells transfected with human β2-AR, cAMP, 15 min incubation, 10^−8 to 10^−4 M, read-out: beta-2 EC50; for beta-2 (IA) maximal response relative to isoproterenol: IA = % activity compound / % activity isoproterenol at 10^−5 M, CHO human β2 cells
T2 construct: expressed in transfected cells; host or cells: CHO cells
How it was run: (§1)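 CHO cell clones expressing 70–110 fmol/mg protein of receptor were pre-incubated 30 min at 37 °C, then treated 15 min at 37 °C with compound (10^−8 to 10^−4 M) in DMEM with 250 μM IBMX and 1 mM ascorbic acid. cAMP was read by SPA after acid stop. EC50 and IA were expressed relative to maximal 10^−5 M isoproterenol response.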

[3] = target: T3, human β1-adrenergic receptor (Homo sapiens, UniProt P08588); experiment: cAMP accumulation (SPA) in CHO cells transfected with human β1 adrenergic receptor; type: cell-based; conditions: for pEC50: CHO cells transfected with human β1-AR, cAMP, 15 min incubation, 10^−8 to 10^−4 M, read-out: beta-1 EC50; for beta-1 (IA) maximal response relative to isoproterenol: IA = % activity compound / % activity isoproterenol at 10^−5 M, CHO human β1 cells
T3 construct: expressed in transfected cells; host or cells: CHO cells
How it was run: as §1

T2 sequence (P07550 whole entry): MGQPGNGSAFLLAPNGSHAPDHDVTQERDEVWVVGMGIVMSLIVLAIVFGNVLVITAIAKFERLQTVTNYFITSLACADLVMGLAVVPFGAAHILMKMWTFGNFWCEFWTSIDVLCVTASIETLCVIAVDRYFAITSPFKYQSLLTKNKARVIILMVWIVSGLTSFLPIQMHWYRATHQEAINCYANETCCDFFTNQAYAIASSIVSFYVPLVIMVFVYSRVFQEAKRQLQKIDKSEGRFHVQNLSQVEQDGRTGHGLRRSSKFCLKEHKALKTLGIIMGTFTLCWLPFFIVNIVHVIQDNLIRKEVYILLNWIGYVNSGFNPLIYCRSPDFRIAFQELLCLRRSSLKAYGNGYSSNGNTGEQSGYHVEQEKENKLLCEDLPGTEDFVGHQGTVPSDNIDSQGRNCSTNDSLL
T3 sequence (P08588 whole entry): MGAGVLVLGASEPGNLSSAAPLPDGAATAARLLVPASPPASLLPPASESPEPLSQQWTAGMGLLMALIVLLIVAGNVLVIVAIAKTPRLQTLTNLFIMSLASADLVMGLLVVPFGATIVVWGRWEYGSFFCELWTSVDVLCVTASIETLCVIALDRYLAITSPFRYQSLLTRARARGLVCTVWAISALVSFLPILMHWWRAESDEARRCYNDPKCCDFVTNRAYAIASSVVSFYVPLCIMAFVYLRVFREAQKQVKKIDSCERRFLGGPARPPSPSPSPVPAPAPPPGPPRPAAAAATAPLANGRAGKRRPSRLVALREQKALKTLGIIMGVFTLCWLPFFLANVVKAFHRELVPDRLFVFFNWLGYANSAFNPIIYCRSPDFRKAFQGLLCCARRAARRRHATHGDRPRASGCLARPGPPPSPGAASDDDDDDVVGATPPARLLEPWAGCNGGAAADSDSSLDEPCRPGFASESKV
T1 sequence (P13945 whole entry): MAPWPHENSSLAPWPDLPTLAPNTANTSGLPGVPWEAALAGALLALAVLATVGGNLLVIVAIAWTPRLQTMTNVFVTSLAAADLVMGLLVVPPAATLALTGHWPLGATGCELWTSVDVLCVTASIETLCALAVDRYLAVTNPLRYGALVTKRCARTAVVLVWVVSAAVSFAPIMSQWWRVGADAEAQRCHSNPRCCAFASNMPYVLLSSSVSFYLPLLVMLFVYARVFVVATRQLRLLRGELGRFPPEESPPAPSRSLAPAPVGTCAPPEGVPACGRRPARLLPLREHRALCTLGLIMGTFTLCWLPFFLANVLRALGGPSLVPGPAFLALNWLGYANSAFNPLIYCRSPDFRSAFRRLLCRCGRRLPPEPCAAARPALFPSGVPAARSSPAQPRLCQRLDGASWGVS

SMILES	pEC50 [1]	beta-3 (IA) maximal response relative to isoproterenol [1]	pEC50 [2]	beta-2 (IA) maximal response relative to isoproterenol [2]	pEC50 [3]	beta-1 (IA) maximal response relative to isoproterenol [3]	melting point [°C]
CCOC(=O)CNS(=O)(=O)c1ccc(N2CCC(NC[C@H](O)c3ccc(O)c(NS(C)(=O)=O)c3)CC2)cc1 [Example 56, Ethyl 2-{[(4-{4-[((2R)-2-Hydroxy-2-{4-hydroxy-3-[(methylsulfonyl)amino]-phenyl}ethyl)amino]-1-piperidinyl}phenyl)sulfonyl]amino}acetate]	7.85	(1)	5.80	(0.27)	5.02	(0.31)	105 to 107
CC#CCC(CC#CC)(C(=O)O)S(=O)(=O)c1ccc(N2CCC(NC[C@H](O)c3ccc(O)c(NS(C)(=O)=O)c3)CC2)cc1 [Example 48, 2-(2-Butynyl)-2-[(4-{4-[((2R)-2-hydroxy-2-{4-hydroxy-3-[(methylsulfonyl)amino]phenyl}ethyl)amino]-1-piperidinyl}phenyl)sulfonyl]-4-hexynoicacid]	6.23	(1)	5.00	(0.54)	5.00	(0.26)	175 to 177
COc1ccc(NS(=O)(=O)c2ccc(N3CCC(NCC(O)c4ccc(O)c(NS(C)(=O)=O)c4)CC3)cc2)cc1OC (stereo not drawn) [Example 8, N-(3,4-Dimethoxy-phenyl)-4-{4-[2-hydroxy-2-(4-hydroxy-3-methanesulfonylamino-phenyl)-ethylamino]-piperidin-1-yl}-benzenesulfonamide]	7.80	(0.91)	6.21	(0.28)	5.44	(0.41)	205 to 218

More lines, in order of rising pEC50 [1], values ahead:

pEC50 [1]	beta-3 (IA) maximal response relative to isoproterenol [1]	pEC50 [2]	beta-2 (IA) maximal response relative to isoproterenol [2]	pEC50 [3]	beta-1 (IA) maximal response relative to isoproterenol [3]	melting point [°C]	SMILES
8.00	(1)	5.15	(0.35)	5.59	(0.72)	200 to 202	CS(=O)(=O)Nc1cc([C@@H](O)CNC2CCN(c3ccc(S(=O)(=O)N4CC(=O)NC4=O)cc3)CC2)ccc1O [Example 50, N-[5-((1R)-2-{1-[4-(2,4-Dioxo-imidazolidine-1-sulfonyl)-phenyl]piperidin-4-ylamino}-1-hydroxy-ethyl)-2-hydroxy-phenyl]-methanesulfonamide]
8.15	(1)		(0.2)	6.10	(0.54)	59 to 64	CCCCN(CC(=O)OCc1ccccc1)S(=O)(=O)c1ccc(N2CCC(NC[C@H](O)c3ccc(O)c(NS(C)(=O)=O)c3)CC2)cc1 [Example 19, [Butyl-(4-{4-[(2R)-2-hydroxy-2-(4-hydroxy-3-methanesulfonylamino-phenyl)-ethylamino]-piperidin-1-yl}-benzenesulfonyl)-amino]-acetic Acid Benzyl Ester]
8.70	(1)	7.40	(0.63)	6.70	(1.08)	65 to 71	CS(=O)(=O)Nc1cc([C@@H](O)CNC2CCN(c3ccc(S(=O)(=O)N4CCC[C@H]4C(=O)OCc4ccccc4)cc3)CC2)ccc1O [Example 22, (2S)-1-(4-{4-[(2R)-2-Hydroxy-2-(4-hydroxy-3-methanesulfonylamino-phenyl)-ethylamino]-piperidin-1-yl}-benzenesulfonyl)-pyrrolidine-2-carboxylic Acid Benzyl Ester]
9.00	(1)	6.15	(0.63)	7.70	(0.74)	115 to 118	Cc1ccc(S(=O)(=O)c2ccc(N3CCC(NCC(O)c4ccc(O)c(NS(C)(=O)=O)c4)CC3)cc2)cc1 (stereo not drawn) [Example 45, N-[2-Hydroxy-5-(1-hydroxy-2-{1-[4-(toluene-4-sulfonyl)-phenyl]-piperidin-4-ylamino}-ethyl)-phenyl]-methanesulfonamide]

Source: US6444685B1, “N-(4-sulfonylaryl)Cyclylamine 2-hydroxyethylamines as beta-3 adrenergic receptor agonists” (Wyeth, priority 2000, dated 2002)
